Active and inactive are the calls of the source. The rule behind the calls is not given here.
Test system: CCRIS mutagenicity, Ames/micronucleus/aberration tests
Test: CCRIS mutagenicity studies
Details: Method: PREINCUBATION

Measured: mutagenic call

C1COCCN1
inactive: Test System: AMES SALMONELLA TYPHIMURIUM, Strain/Indicator: TA98, Metabolic Activation: NONE inactive; negative | Test System: AMES SALMONELLA TYPHIMURIUM, Strain/Indicator: TA98, Metabolic Activation: RAT LIVER S-9, PHENOBARBITAL AND BETA-NAPHTHOFLAVONE inactive; negative | Test System: AMES SALMONELLA TYPHIMURIUM, Strain/Indicator: TA98, Metabolic Activation: RAT, LIVER, S-9, PCB inactive; negative | Test System: AMES SALMONELLA TYPHIMURIUM, Strain/Indicator: TA100, Metabolic Activation: NONE inactive; negative | Test System: AMES SALMONELLA TYPHIMURIUM, Strain/Indicator: TA100, Metabolic Activation: RAT LIVER S-9, PHENOBARBITAL AND BETA-NAPHTHOFLAVONE inactive; negative | Test System: AMES SALMONELLA TYPHIMURIUM, Strain/Indicator: TA100, Metabolic Activation: RAT, LIVER, S-9, PCB inactive; negative | Test System: AMES SALMONELLA TYPHIMURIUM, Strain/Indicator: TA1535, Metabolic Activation: NONE inactive; negative | Test System: AMES SALMONELLA TYPHIMURIUM, Strain/Indicator: TA1535, Metabolic Activation: RAT LIVER S-9, PHENOBARBITAL AND BETA-NAPHTHOFLAVONE inactive; negative | Test System: AMES SALMONELLA TYPHIMURIUM, Strain/Indicator: TA1537, Metabolic Activation: NONE inactive; negative | Test System: AMES SALMONELLA TYPHIMURIUM, Strain/Indicator: TA1537, Metabolic Activation: RAT LIVER S-9, PHENOBARBITAL AND BETA-NAPHTHOFLAVONE inactive; negative | Test System: E.COLI, Strain/Indicator: WP2UVRA, Metabolic Activation: NONE inactive; negative | Test System: E.COLI, Strain/Indicator: WP2UVRA, Metabolic Activation: RAT LIVER S-9, PHENOBARBITAL AND BETA-NAPHTHOFLAVONE inactive; negative
